In patent US8802711B2, “TRPV1 antagonists” (AbbVie Inc., priority 2011, dated 2014):

Tested on: Sprague-Dawley rats
Test: Chronic constriction injury model of neuropathic pain
Type: in vivo, rat
Conditions: 100 μmol/kg p.o., 1 hour after dosing
Description: Adult male Sprague-Dawley rats (250-300 g body weight, Charles River Laboratories, Portage, Mich.) were used. Animal handling and experimental protocols were approved by the Institutional Animal Care and Use Committee (IACUC) at Abbott Laboratories. For all surgical procedures, animals were maintained under isoflurane anesthesia (4-5% to induce, 1-3% to maintain), and the incision sites were sterilized using a 10% povidone-iodine solution prior to and after surgeries.
A model of chronic constriction injury-induced (CCI) neuropathic pain was produced in rats by following the method of Bennett and Xie (Pain, 1988, 33:87). Following sterilization and anesthetic procedures, a 1.5 cm incision was made dorsal to the pelvis, and the biceps femoris and gluteous superficialis (right side) were separated. The right common sciatic nerve was exposed/isolated, and loosely ligated by 4 ligatures of chromic gut (5-0) with <1 mm spacing using hemostats and forceps. […]
Tactile allodynia was measured using calibrated von Frey filaments (Stoelting, Wood Dale, Ill.) as described in Chaplan, S. R., F. W. Bach, J. M. Pogrel, J. M. Chung and T. L. Yaksh, Quantitative assessment of tactile allodynia in the rat paw, J. Neurosci. […]

| Structure (SMILES) | % effect [%] |
| --- | --- |
| O=C(Nc1cccc2[nH]ncc12)N[C@H]1CC[C@@H](c2ccccc2)C1 [Example 28, 1-(1H-indazol-4-yl)-3-[(1S,3R)-3-phenylcyclopentyl]urea] | 54 |
| O=C(Nc1cccc2[nH]ncc12)N[C@H]1CC[C@H](c2ccccc2)C1 [Example 14, 1-(1H-indazol-4-yl)-3-[(1S,3S)-3-phenylcyclopentyl]urea] | 53 |
